Experimental data taken from US12668591B2, “1,2,4-oxadiazole derivatives as histone deacetylase 6 inhibitors” (Oryzon Genomics, S.A., priority 2017, dated 2026).

Target: T1, HDAC6 (Homo sapiens, UniProt Q9UBN7)
T1 sequence (Q9UBN7 1-1215): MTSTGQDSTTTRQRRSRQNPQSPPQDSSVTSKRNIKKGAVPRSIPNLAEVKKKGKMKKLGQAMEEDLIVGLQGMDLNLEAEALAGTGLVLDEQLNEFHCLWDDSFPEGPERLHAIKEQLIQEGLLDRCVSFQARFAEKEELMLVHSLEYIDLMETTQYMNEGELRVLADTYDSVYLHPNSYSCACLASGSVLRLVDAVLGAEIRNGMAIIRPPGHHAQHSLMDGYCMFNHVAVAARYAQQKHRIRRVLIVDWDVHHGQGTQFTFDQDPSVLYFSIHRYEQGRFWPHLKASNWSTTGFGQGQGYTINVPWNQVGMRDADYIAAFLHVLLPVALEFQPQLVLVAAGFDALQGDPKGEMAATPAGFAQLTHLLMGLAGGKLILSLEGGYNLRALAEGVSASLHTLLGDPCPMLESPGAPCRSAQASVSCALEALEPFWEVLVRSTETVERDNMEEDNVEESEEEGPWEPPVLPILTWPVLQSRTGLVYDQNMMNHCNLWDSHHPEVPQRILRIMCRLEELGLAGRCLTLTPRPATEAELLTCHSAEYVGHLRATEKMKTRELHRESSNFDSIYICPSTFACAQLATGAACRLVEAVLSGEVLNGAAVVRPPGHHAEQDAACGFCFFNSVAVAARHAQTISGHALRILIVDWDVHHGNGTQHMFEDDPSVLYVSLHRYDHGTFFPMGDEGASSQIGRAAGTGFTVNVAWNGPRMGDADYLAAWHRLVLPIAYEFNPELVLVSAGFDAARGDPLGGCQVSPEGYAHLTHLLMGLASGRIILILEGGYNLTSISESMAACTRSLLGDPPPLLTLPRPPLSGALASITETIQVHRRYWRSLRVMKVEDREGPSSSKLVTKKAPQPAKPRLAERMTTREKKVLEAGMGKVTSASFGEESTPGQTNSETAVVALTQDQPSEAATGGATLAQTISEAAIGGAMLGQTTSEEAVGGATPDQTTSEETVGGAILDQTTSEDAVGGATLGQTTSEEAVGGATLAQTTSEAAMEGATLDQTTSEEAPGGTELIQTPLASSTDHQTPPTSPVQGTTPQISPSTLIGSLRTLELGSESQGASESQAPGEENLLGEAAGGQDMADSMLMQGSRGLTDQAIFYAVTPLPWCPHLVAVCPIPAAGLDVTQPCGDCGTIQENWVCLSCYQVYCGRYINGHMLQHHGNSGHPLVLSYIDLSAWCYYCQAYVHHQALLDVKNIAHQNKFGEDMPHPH
Assay: In vitro cell-based assay: acetylation levels of Alpha-Tubulin by Western Blot in MOLP8 cells
Parameters: endogenous in cells; host or cells: MOLP8
Settings: 18 h, acetyl-alpha-tubulin relative band intensity, ACY-1215 1 μM = 100%
Procedure: In Vitro Cell-Based Assay
In order to determine the cellular activity of HDAC6 upon treatment with HDAC6 inhibitors, acetylation levels of Alpha-Tubulin (a HDAC6-specific substrate) were measured by Western Blot. For this, MOLP8 cells were seeded in 6-well plates at a cell density of 500.000 cells/well and treated with the selected compounds at 5 and 1 μM for 18 h at 37° C. and 5% CO2 in a humidified tissue culture incubator. Consecutively, cell pellets were collected and whole protein extracts prepared using RIPA buffer (SIGMA) supplemented with 1× protease inhibitors (cOmplete mini, Roche). Protein concentration was determined with Bradford's reagent (Bio-Rad) as per manufacturer's instructions, and 7 μg of total protein were loaded into pre-cast 10% NuPAGE Novex gels (Life Technologies). Gels were run in […] (Life Technologies) and proteins were transferred using the iBlot 2 Dry Blotting System (Life Technologies). Blots were subsequently rinsed in distilled water and stained with Ponceau S solution (SIGMA). Blots were then washed in distilled water to remove Ponceau excess and scanned with the Epson Perfection V600 Photo professional Scanner. After this, blots were de-stained and blocked in 5% milk/PBS-Tween 0.1% for 1 h at room temperature followed by incubation with anti-Acetyl-alpha Tubulin (SIGMA cat. #T7451, 1:10.000 dilution) and anti-Beta-actin (SIGMA, cat. #A5316, 1:2.000 dilution) primary antibodies in 5% milk/PBS-T 0.1%, overnight at 4° C. on a shaking platform. After incubation, blots were washed 3 times for 5 minutes each in PBS-Tween 0.5% and incubated with anti-mouse HRP-conjugated secondary antibody (Jackson Immuno Research, cat. #115-035-068) at 1:8.000 in 5% milk/PBS-Tween 0.1%, 1 h at room temperature on a shaking platform. After 3 washes of 5 minutes each with PBS-Tween 0.5% and 1 wash in PBS 1×, blots were developed with ECL Plus (GE Healthcare) and the chemiluminescent reaction imaged with the G:Box Chemi XRQ (Syngene) imaging system. WB and Ponceau images were analysed with ImageJ software, WB band intensities normalized by either total protein or Beta-actin content and made relative to ACY-1215 1 μM (equivalent to 100%). ACY-1215 is a HDAC6 inhibitor, and is also known as ricolinostat, with chemical name 2-(diphenylamino)-N-[7-(hydroxyamino)-7-oxoheptyl]-5-pyrimidinecarboxamide. Percentage of band intensities was classified as follows: […]

Row | SMILES | Cellular activity @1 uM | Cellular activity @5 uM
1 | CCn1nc(-c2cc(-c3noc(C(F)(F)F)n3)ccn2)c2ncccc21 [Example 1aab, 3-(2-(1-Ethyl-1H-pyrazolo[4,3-b]pyridin-3-yl)pyridin-4-yl)-5-(trifiuoromethyl)-1,2,4-oxadiazole] | + (50-150) | + (50-150)
2 | CCCCN(C(=O)CCOC)c1ccc(-c2cc(-c3noc(C(F)(F)F)n3)ccn2)nc1 [Example 1i, N-Butyl-3-methoxy-N-(4′-(5-(trifluoromethyl)-1,2,4-oxadiazol-3-yl)-[2,2′-bipyridin]-5-yl)propanamide] | − (<50) | + (50-150)
3 | Cn1cc(Cn2ccc3cnc(-c4cc(-c5noc(C(F)(F)F)n5)ccn4)cc32)cn1 [Example 1aad, 3-(2-(1-((1-Methyl-1H-pyrazol-4-yl)methyl)-1H-pyrrolo[3,2-c]pyridin-6-yl)pyridin-4-yl)-5-(trifluoromethyl)-1,2,4-oxadiazole] | + (50-150) | ++ (150-300)
4 | Cn1ccc2cc(-c3cc(-c4noc(C(F)(F)F)n4)ccn3)ncc21 [Example 1at, 3-(2-(1-Methyl-1H-pyrrolo[2,3-c]pyridin-5-yl)pyridin-4-yl)-5-(trifluoromethyl)-1,2,4-oxadiazole] | − (<50) | + (50-150)
5 | CN(C)CCCOc1ccc(-c2cc(-c3noc(C(F)(F)F)n3)ccn2)nc1 [Example 7, N,N-Dimethyl-3-((4′-(5-(trifluoromethyl)-1,2,4-oxadiazol-3-yl)-[2,2′-bipyridin]-5-yl)oxy)propan-1-amine] | − (<50) | + (50-150)
6 | CNCCCOc1ccc(-c2cc(-c3noc(C(F)(F)F)n3)ccn2)nc1 [Example 2, N-Methyl-3-((4′-(5-(trifluoromethyl)-1,2,4-oxadiazol-3-yl)-[2,2′-bipyridin]-5-yl)oxy)propan-1-amine] | − (<50) | + (50-150)
7 | COCCn1cc(-c2cn[nH]c2)c2cc(-c3cc(-c4noc(C(F)(F)F)n4)ccn3)ncc21 [Example 1as, 3-(2-(1-(2-Methoxyethyl)-3-(1H-pyrazol-4-yl)-1H-pyrrolo[2,3-c]pyridin-5-yl)pyridin-4-yl)-5-(trifluoromethyl)-1,2,4-oxadiazole] | + (50-150) | + (50-150)
8 | FC(F)(F)c1nc(-c2ccnc(-c3ccc(OCCCn4cccn4)cn3)c2)no1 [Example 1ag, 3-(5′-(3-(1H-Pyrazol-1-yl)propoxy)-[2,2′-bipyridin]-4-yl)-5-(trifluoromethyl)-1,2,4-oxadiazole] | − (<50) | + (50-150)
9 | CN(CCO)CCCOc1ccc(-c2cc(-c3noc(C(F)(F)F)n3)ccn2)nc1 [Example 1ax, 2-(Methyl(3-((4′-(5-(trifluoromethyl)-1,2,4-oxadiazol-3-yl)-[2,2′-bipyridin]-5-yl)oxy)propyl)amino)ethan-1-ol] | + (50-150) | + (50-150)
10 | CN(CCCN1CCC(F)(F)CC1)c1ccc(-c2cc(-c3noc(C(F)(F)F)n3)ccn2)nc1 [Example 1l, N-(3-(4,4-Difluoropiperidin-1-yl)propyl)-N-methyl-4′-(5-(trifluoromethyl)-1,2,4-oxadiazol-3-yl)-[2,2′-bipyridin]-5-amine] | − (<50) | + (50-150)
11 | CCN(CC)CCCN(C)c1ccc(-c2cc(-c3noc(C(F)(F)F)n3)ccn2)nc1 [Example 1n, N^1,N^1-Diethyl-N^3-methyl-N^3-(4′-(5-(trifluoromethyl)-1,2,4-oxadiazol-3-yl)-2,2′-bipyridin-5-yl)propane-1,3-diamine] | − (<50) | + (50-150)
